Experiment [1] concerns Plasma. Briefly: Anticoagulant activity in rabbit plasma assessed as concentration required to double activated partial thromboplastin time. It counts as functional, Oryctolagus cuniculus.
Experiment [2] has as its system Plasma. Briefly: Anticoagulant activity in human plasma assessed as concentration required to double activated partial thromboplastin time. Type of experiment: functional.
Experiment [3] deals with Plasma. The experiment is described as follows: Anticoagulant activity in human plasma assessed as concentration required to double prothrombin time. It counts as functional.
Experiment [4] deals with Plasma. Briefly: Anticoagulant activity in rabbit plasma assessed as concentration required to double prothrombin time. Type of experiment: functional, Oryctolagus cuniculus.
Experiment [5] relates to Rattus norvegicus. The experiment is described as follows: Inhibition of thrombus formation in Sprague-Dawley rat at 10 mg/kg, po after 2 hrs relative to control. Type of experiment: functional.
The target of experiment [6] is T1, Coagulation factor X (Homo sapiens, UniProt P00742). Briefly: Inhibition of human F10a assessed as decrease in p-nitroaniline cleavage from pefachrome F10a at 5 uM preincubated for 10 mins followed by substrate addition measured after 20 mins relative to control.
T1 sequence (P00742 41-179 limits assumed): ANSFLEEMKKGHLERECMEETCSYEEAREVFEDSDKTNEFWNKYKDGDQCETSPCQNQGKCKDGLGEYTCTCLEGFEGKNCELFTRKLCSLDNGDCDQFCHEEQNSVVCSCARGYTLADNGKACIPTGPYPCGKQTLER
T1 sequence (P00742 235-488 limits assumed): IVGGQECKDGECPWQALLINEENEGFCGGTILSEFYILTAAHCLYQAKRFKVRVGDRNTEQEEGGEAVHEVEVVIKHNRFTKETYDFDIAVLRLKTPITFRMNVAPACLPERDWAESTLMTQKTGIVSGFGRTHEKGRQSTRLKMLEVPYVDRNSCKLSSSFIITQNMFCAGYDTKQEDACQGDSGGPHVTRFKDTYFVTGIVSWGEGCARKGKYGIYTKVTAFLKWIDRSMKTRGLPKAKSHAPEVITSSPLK
The target of experiment [7] is T1, Coagulation factor X. Briefly: Inhibition of human F10a assessed as decrease in p-nitroaniline cleavage from pefachrome F10a at 0.5 uM preincubated for 10 mins followed by substrate addition measured after 20 mins relative to control.
Experiment [8] addresses T1, Coagulation factor X. The experiment is described as follows: Inhibition of human F10a assessed as decrease in p-nitroaniline cleavage from pefachrome F10a preincubated for 10 mins followed by substrate addition measured after 20 mins.

Molecules are shown by their SMILES.

The values below come from ChEMBL document CHEMBL4024723, “Design, synthesis, and biological activity of novel tetrahydropyrazolopyridone derivatives as FXa inhibitors with potent anticoagulant activity” (Bioorg Med Chem, 2017).

As usually defined, the inhibition in vivo is the drop in the measured response relative to a control, in per cent. Read a low inhibition in vivo as a response near the control. The inhibition is the change of the read-out against control, counted positive when it falls. Usually IC50 stands for the concentration needed to halve the response being measured.

As for `COc1ccc(-n2nc(Cn3nnc4ccccc43)c3c2C(=O)N(c2ccc(N4CCCCC4=O)cc2)CC3)cc1`, the 2aPTT was determined as 39.1 µM in experiment [1] and 31.6 µM in experiment [2]. Also, the 2PT in experiment [3] worked out at 25.2 µM; in experiment [4], 29.4 µM.
For `COc1ccc(-n2nc(C(N)=O)c3c2C(=O)N(c2ccc(N4CCCCC4=O)cc2)CC3)cc1` [APIXABAN], the 2aPTT in experiment [1] is 1.4 µM; in experiment [2], 0.9 µM. Besides, the inhibition in vivo at 10 mg/kg in experiment [5] stood at 95%. Besides, the 2PT in experiment [3] worked out at 0.8 µM; in experiment [4], 1 µM.
In the case of `COc1ccc(-n2nc(Cn3cc(C(N)=O)nn3)c3c2C(=O)N(c2ccc(N4CCCCC4=O)cc2)CC3)cc1`, the 2aPTT in experiment [1] amounted to 5.2 µM; in experiment [2], 3.1 µM. Also, the 2PT stood at 1.4 µM in experiment [3] and 2.1 µM in experiment [4].
On to `COc1ccc(-n2nc(C3=NCCCN3)c3c2C(=O)N(c2ccc(N4CCCCC4=O)cc2)CC3)cc1`, for which the 2aPTT in experiment [1] was determined as 15.4 µM; in experiment [2] it was 13.5 µM. Also, the 2PT in experiment [3] came to 9.4 µM; in experiment [4], 10.8 µM.
For `COc1ccc(-n2nc(-n3cnnc3C)c3c2C(=O)N(c2ccc(N4CCCCC4=O)cc2)CC3)cc1`, the results for the inhibition in experiment [6] and in experiment [7] were 65.2% and 55.1%, respectively. Also, the 2aPTT in experiment [1] came to 3 µM; in experiment [2], 2.8 µM. The 2PT in experiment [3] worked out at 1.2 µM; in experiment [4], 1.7 µM.
In the case of `COc1ccc(-n2nc(-n3cnnc3N)c3c2C(=O)N(c2ccc(N4CCCCC4=O)cc2)CC3)cc1`, the 2aPTT stood at 9.1 µM in experiment [1] and 8.3 µM in experiment [2]. In addition, the 2PT in experiment [3] was found to be 4.1 µM; in experiment [4], 5.9 µM.
In the same order, the values of `COc1ccc(-c2nn(Cc3nn(-c4ccc(OC)cc4)c4c3CCN(c3ccc(N5CCCCC5=O)cc3)C4=O)c(=O)[nH]2)cc1` are 23.2 µM, 19.5 µM, 17.7 µM and 19.3 µM.
Turning to `CCN(CC)Cc1nncn1-c1nn(-c2ccc(OC)cc2)c2c1CCN(c1ccc(N3CCCCC3=O)cc1)C2=O`, the 2aPTT stood at 11.5 µM in experiment [1] and 9.6 µM in experiment [2]. The 2PT amounted to 7.2 µM in experiment [3] and 8 µM in experiment [4].
In the same order, the values of `COc1ccc(-n2nc(C3=NC(C)CN3)c3c2C(=O)N(c2ccc(N4CCCCC4=O)cc2)CC3)cc1` (stereo not given) are 17.1 µM, 14.6 µM, 8.9 µM and 10 µM.
As to `COc1ccc(-n2nc(Cn3cnc(-c4ccncc4)n3)c3c2C(=O)N(c2ccc(N4CCCCC4=O)cc2)CC3)cc1`, the 2aPTT in experiment [1] amounted to 2.1 µM; in experiment [2], 2.3 µM. The 2PT is 1.6 µM in experiment [3] and 1.9 µM in experiment [4].
With `COc1ccc(-n2nc(-n3cnnc3)c3c2C(=O)N(c2ccc(N4CCCCC4=O)cc2)CC3)cc1`, the 2aPTT in experiment [1] came out at 13.7 µM; in experiment [2] it was 10 µM. Moreover, the values for the 2PT in experiment [3] and in experiment [4] were 4.9 µM and 5.7 µM, respectively.
Consider `COc1ccc(-n2nc(Cn3cnc(-c4cccnc4)n3)c3c2C(=O)N(c2ccc(N4CCCCC4=O)cc2)CC3)cc1`, for which the 2aPTT in experiment [1] was found to be 5.2 µM; in experiment [2], 4.3 µM. Moreover, the 2PT was determined as 2 µM in experiment [3] and 3.2 µM in experiment [4].
In the same order, the values of `COc1ccc(-n2nc(Cn3nc(-c4ccccc4)[nH]c3=O)c3c2C(=O)N(c2ccc(N4CCCCC4=O)cc2)CC3)cc1` are 29.8 µM, 27.1 µM, 11.7 µM and 12.4 µM.
Take `COc1ccc(-n2nc(Cn3cnc(-c4ccc(Cl)cc4)n3)c3c2C(=O)N(c2ccc(N4CCCCC4=O)cc2)CC3)cc1`: the 2aPTT in experiment [1] amounted to 5 µM; in experiment [2] it was 3.6 µM. In addition, the 2PT was 1.9 µM in experiment [3] and 3.5 µM in experiment [4].
In the case of `COc1ccc(-n2nc(C3=NCCCCN3)c3c2C(=O)N(c2ccc(N4CCCCC4=O)cc2)CC3)cc1`, the results for the 2aPTT in experiment [1] and in experiment [2] were 26.9 µM and 24.3 µM, respectively. In addition, the results for the 2PT in experiment [3] and in experiment [4] were 10.9 µM and 12.1 µM, respectively.
On to `COc1ccc(-c2ncn(Cc3nn(-c4ccc(OC)cc4)c4c3CCN(c3ccc(N5CCCCC5=O)cc3)C4=O)n2)cc1`, for which the inhibition turned out to be 76.4% in experiment [6] and 66.1% in experiment [7]. For the same compound, the 2aPTT was 1.7 µM in experiment [1] and 1.1 µM in experiment [2]. For the same compound, the 2PT in experiment [3] turned out to be 0.8 µM; in experiment [4] it was 1.2 µM.
Take `COc1ccc(-n2nc(-n3cnnn3)c3c2C(=O)N(c2ccc(N4CCCCC4=O)cc2)CC3)cc1`: the 2aPTT was 8.2 µM in experiment [1] and 7.3 µM in experiment [2]. In addition, the values for the 2PT in experiment [3] and in experiment [4] were 4.2 µM and 5.7 µM, respectively.
Taken in the same sequence, the figures for `COc1ccc(-n2nc(C3=NCCN3C)c3c2C(=O)N(c2ccc(N4CCCCC4=O)cc2)CC3)cc1` were 12 µM, 10.5 µM, 8.8 µM and 9.6 µM.
Turning to `COc1ccc(-n2nc(C3=NCCN3)c3c2C(=O)N(c2ccc(N4CCCCC4=O)cc2)CC3)cc1`, the 2aPTT was 12.5 µM in experiment [1] and 11.8 µM in experiment [2]. In addition, the 2PT in experiment [3] was 6.2 µM; in experiment [4] it was 7.5 µM.
On to `COc1ccc(-n2nc(-n3cnnc3CN3CCOCC3)c3c2C(=O)N(c2ccc(N4CCCCC4=O)cc2)CC3)cc1`, for which the inhibition was determined as 99% in experiment [6] and 94.5% in experiment [7]. Further, the 2aPTT in experiment [1] was found to be 1.2 µM; in experiment [2], 0.7 µM. Besides, the IC50 in experiment [8] came to 140 nM. The compound also showed an inhibition in vivo at 10 mg/kg in experiment [5] of 98%. Besides, the 2PT is 0.5 µM in experiment [3] and 0.9 µM in experiment [4].
For the compound `COc1ccc(-n2nc(Cn3cnc(-c4ccccc4)n3)c3c2C(=O)N(c2ccc(N4CCCCC4=O)cc2)CC3)cc1`, the 2aPTT is 5 µM in experiment [1] and 3.6 µM in experiment [2]. Further, the figures for the 2PT in experiment [3] and in experiment [4] were 2.4 µM and 3.4 µM, respectively.
With `COc1ccc(-n2nc(Cn3ccnn3)c3c2C(=O)N(c2ccc(N4CCCCC4=O)cc2)CC3)cc1`, the 2aPTT in experiment [1] stood at 3.9 µM; in experiment [2], 3.7 µM. The 2PT is 2.4 µM in experiment [3] and 2.1 µM in experiment [4].
Taken in the same sequence, the figures for `COc1ccc(-n2nc(-n3cnnc3CN3CCCC3)c3c2C(=O)N(c2ccc(N4CCCCC4=O)cc2)CC3)cc1` were 18 µM, 15.6 µM, 7.6 µM and 8.4 µM.
For `COc1ccc(-n2nc(Cn3cc(C#N)nn3)c3c2C(=O)N(c2ccc(N4CCCCC4=O)cc2)CC3)cc1`, the results for the inhibition in experiment [6] and in experiment [7] were 94% and 86.7%, respectively. Besides, the values for the 2aPTT in experiment [1] and in experiment [2] were 1.5 µM and 1 µM, respectively. Moreover, the IC50 in experiment [8] was determined as 360 nM. 10 mg/kg produced 89% inhibition in vivo in experiment [5]. In addition, the 2PT in experiment [3] stood at 0.7 µM; in experiment [4], 0.9 µM.
`COc1ccc(-n2nc(Cn3cnc(-c4ccc(F)cc4)n3)c3c2C(=O)N(c2ccc(N4CCCCC4=O)cc2)CC3)cc1`: the inhibition stood at 70.3% in experiment [6] and 60.6% in experiment [7]. The figures for the 2aPTT in experiment [1] and in experiment [2] were 3.1 µM and 2.3 µM, respectively. For the same compound, the 2PT was 0.9 µM in experiment [3] and 2.1 µM in experiment [4].
